Measurements from US5922545A, “In vitro peptide and antibody display libraries” (Affymax Technologies N.V., priority 1997, dated 1999).

Key:
[1] = system: peptidyl transferase activity of 50S ribosomal subunits; conditions: cited from earlier work
mAb D32.39 [2] = test: competition binding assay of synthesized peptides for mAb D32.39; conditions: 50 pM tracer peptide containing the D32.39 epitope sequence, IC50 should approximate the Kd, read-out: binding affinity for mAb D32.39 (IC50)
Source text: FIG. 6. (SEQ. ID NO: 50-74) Amino acid alignment of selected peptide sequences with dynorphin B. The six-residue D32.39 epitope sequence of dynorphin B and the peptide regions similar to it are shown in the box. A total of 6, 13, 19, and 9 independent clones were sequenced from rounds 2, 3, 4 and 5, respectively. The frequency indicates the number of times each sequence occurred among the clones isolated from each round, and the asterisks indicate identical sequences found in different rounds. Binding affinities for D32.39 were determined by chemically synthesizing the indicated peptide sequences and measuring the IC50 as described in the Experimental Examples.
Peptides were synthesized with an Applied Biosystems model 431A peptide synthesizer using Fmoc-protected amino acids. The peptides were purified to greater than 90% purity by HPLC and confirmed by mass spectroscopy. The competition binding assay was performed and included a low concentration (50 pM) of the tracer peptide containing the D32.39 epitope sequence.
Peptides corresponding to some of the enriched sequences were chemically synthesized, purified and their identity confirmed by mass spectrometry. A competition binding assay was used to estimate their affinity for the mAb D32.39 and under the conditions of the assays the IC50 value should approximate the Kd. […]

mAb D32.39 [3] = test: competition binding of radiolabelled polysomes to immobilized mAb D32.39; conditions: wells preincubated with 10 μH dynorphin B peptide for 1 hr at 4° C.
Protocol: FIG. 2. Specific binding of polysomes to mAb D32.39. Radiolabelled polysomes were isolated from reactions programmed with 1.5 μg of HindIII-linearized plasmid pLM138 or pLM142 and bound to microtiter wells containing the immobilized mAb. The recovered mIRNA was quantitated by TCA precipitation. (Panel A) Binding of polysomes containing the D32.39 epitope (closed boxes) or control (open boxes) sequences. (Panel B) Competition binding assay. Microtiter wells were preincubated with polysome buffer in the absence or presence of 10 μH dynorphin B peptide for 1 hr at 4° C. prior to adding 131,000 cpm of polysomes containing the D32.39 epitope (RQFKVVT) (SEQ ID NO:18) or control (VFKRTVQ) (SEQ ID NO:15) sequences.
Dynal beads were prepared according to the manufacturer. Microtiter wells were prepared for polysome binding by incubating each well with mAb D32.39 (5 μg per well) in PBS (10 mM sodium phosphate pH 7.4/120 mM NaCl/2.7 mM KCl) for 1 hr at 37° C., washing with PBS, blocking with PBS/1% nonfat milk for 1 hr at 37° C. and washing again with polysome buffer. Polysomes, as indicated, were incubated with the antibody for 2 hr at 4° C. […]
Specific Binding of Polysomes to mAb D32.39. The fraction of polysomes capable of binding specifically to mAb D32.39 via the nascent peptide was determined. […]

[4] = biological target: iron response element (IRE); conditions: binds as a monomer; read-out: dissociation constant; cited from earlier work

Molecule: MSTSKNAD [cmlA 8-mer peptide]
- inhibitory activity relative to chloramphenicol ([1]; as inhibitory as chloramphenicol): about 50%
- inhibitory activity relative to the cat 5-mer ([1]; more inhibitory than the cat 5-mer): about 5 fold

Molecule: dynorphin B
- IC50 (mAb D32.39 [2]): 0.29 nM
- blocking of binding of D32.39 epitope polysomes to mAb D32.39 (mAb D32.39 [3]): binding was blocked

B1: IREBP: iron response element binding protein (98.4 kDal), RNA-binding protein (protein, UniProt P21399 1-889, looked up)
Cytoplasmic aconitate …: MSNPFAHLAEPLDPVQPGKKFFNLNKLEDSRYGRLPFSIRVLLEAAIRNCDEFLVKKQDIENILHWNVTQHKNIEVPFKPARVILQDFTGVPAVVDFAAMRDAVKKLGGDPEKINPVCPADLVIDHSIQVDFNRRADSLQKNQDLEFERNRERFEFLKWGSQAFHNMRIIPPGSGIIHQVNLEYLARVVFDQDGYYYPDSLVGTDSHTTMIDGLGILGWGVGGIEAEAVMLGQPISMVLPQVIGYRLMGKPHPLVTSTDIVLTITKHLRQVGVVGKFVEFFGPGVAQLSIADRATIANMCPEYGATAAFFPVDEVSITYLVQTGRDEEKLKYIKKYLQAVGMFRDFNDPSQDPDFTQVVELDLKTVVPCCSGPKRPQDKVAVSDMKKDFESCLGAKQGFKGFQVAPEHHNDHKTFIYDNTEFTLAHGSVVIAAITSCTNTSNPSVMLGAGLLAKKAVDAGLNVMPYIKTSLSPGSGVVTYYLQESGVMPYLSQLGFDVVGYGCMTCIGNSGPLPEPVVEAITQGDLVAVGVLSGNRNFEGRVHPNTRANYLASPPLVIAYAIAGTIRIDFEKEPLGVNAKGQQVFLKDIWPTRDEIQAVERQYVIPGMFKEVYQKIETVNESWNALATPSDKLFFWNSKSTYIKSPPFFENLTLDLQPPKSIVDAYVLLNLGDSVTTDHISPAGNIARNSPAARYLTNRGLTPREFNSYGSRRGNDAVMARGTFANIRLLNRFLNKQAPQTIHLPSGEILDVFDAAERYQQAGLPLIVLAGKEYGAGSSRDWAAKGPFLLGIKAVLAESYERIHRSNLVGMGVIPLEYLPGENADALGLTGQERYTIIIPENLKPQMKVQVKLDTGKTFQAVMRFDTDVELTYFLNGGILNYMIRKMAK
- Kd [4]: 0.02 to 0.05 nM
